From patent US20250195666A1, “MIR-142 COMPOUNDS AND USES THEREOF” (City of Hope, priority 2021, published 2025) come the findings set out here.

This experiment concerns miR-142^−/−BCR-ABL LSKs.

Method: LSKs from diseased miR-142 null and miR-142 wt BCR-ABL mice were treated with CpG-M-miR-142 (2 μM) or SCR±NIL (2 μM) for 72 h.

For the compound `Cc1cn(-c2cc(NC(=O)c3ccc(C)c(Nc4nccc(-c5cccnc5)n4)c3)cc(C(F)(F)F)c2)cn1` [NIL, nilotinib], the apoptosis result is reported as “lower apoptosis” and the cell growth entry is “higher cell growth”.
